# Values of other authors in patent US6184217A (Cephalon, Inc., priority 1997, dated 2001).
# What was measured:
# [1] = tested on: smooth muscle contraction; details: cited from earlier work
# [2] = tested on: histamine release; details: cited from earlier work
# [3] = tested on: inflammation; details: cited from earlier work
# [4] = tested on: elongation of neurazone; details: cited from earlier work
# [5] = tested on: IL-2 production; details: cited from earlier work
# [6] = tested on: lethality resulting from endotoxin administration; details: in vivo; cited from earlier work
# [7] = tested on: smooth muscle MLCK; details: cited from earlier work
# [8] = tested on: protein kinase C (PKC); details: cited from earlier work
structure (smiles),measurement,setting,value
COC(=O)C1(O)CC2OC1(C)n1c3ccccc3c3c4c(c5c6ccccc6n2c5c31)C(=O)NC4 (centres unmarked) [Compound K-252a],inhibiting smooth muscle contraction,[1],inhibiting smooth muscle contraction
same,inhibiting histamine release,[2],inhibiting histamine release
same,anti-inflammatory action,[3],anti-inflammatory action
same,inhibiting elongation of neurazone,[4],inhibiting elongation of neurazone
same,inhibiting IL-2 production,[5],inhibiting IL-2 production
same,lethality resulting from endotoxin administration,[6],reduces the lethality resulting from endotoxin administration
same,inhibiting smooth muscle MLCK,[7],inhibiting smooth muscle MLCK
same,inhibition of protein kinase C,[8],strongly inhibits protein kinase C (PKC)
